Measurements published in ChEMBL document CHEMBL1126154, “Pyrrole mannich bases as potential antipsychotic agents” (J Med Chem, 1992).

Columns and labels:
[1] = molecular target: T1, Adrenergic receptor alpha-1 (Rattus norvegicus, UniProt P15823+P23944+P43140); assay: The compound was tested for its binding affinity towards Alpha-1 adrenergic receptor by displacing [3H]WB-4101 radioligand in rat cerebral cortex; format: tissue-based
T1 sequence (P15823 whole entry): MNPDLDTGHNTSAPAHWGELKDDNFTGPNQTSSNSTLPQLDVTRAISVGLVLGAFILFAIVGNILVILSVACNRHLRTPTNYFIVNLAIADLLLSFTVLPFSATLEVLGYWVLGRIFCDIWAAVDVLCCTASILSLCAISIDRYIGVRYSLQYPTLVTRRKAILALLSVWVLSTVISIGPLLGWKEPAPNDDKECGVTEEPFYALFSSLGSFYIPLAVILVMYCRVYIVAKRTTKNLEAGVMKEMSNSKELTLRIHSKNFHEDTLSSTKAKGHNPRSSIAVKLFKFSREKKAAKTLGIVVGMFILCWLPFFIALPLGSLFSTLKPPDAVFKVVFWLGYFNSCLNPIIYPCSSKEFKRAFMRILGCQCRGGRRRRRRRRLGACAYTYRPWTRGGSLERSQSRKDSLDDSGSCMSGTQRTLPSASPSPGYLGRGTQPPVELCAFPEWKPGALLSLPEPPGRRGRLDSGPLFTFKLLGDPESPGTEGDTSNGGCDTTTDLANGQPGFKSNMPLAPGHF
T1 sequence (P23944 whole entry): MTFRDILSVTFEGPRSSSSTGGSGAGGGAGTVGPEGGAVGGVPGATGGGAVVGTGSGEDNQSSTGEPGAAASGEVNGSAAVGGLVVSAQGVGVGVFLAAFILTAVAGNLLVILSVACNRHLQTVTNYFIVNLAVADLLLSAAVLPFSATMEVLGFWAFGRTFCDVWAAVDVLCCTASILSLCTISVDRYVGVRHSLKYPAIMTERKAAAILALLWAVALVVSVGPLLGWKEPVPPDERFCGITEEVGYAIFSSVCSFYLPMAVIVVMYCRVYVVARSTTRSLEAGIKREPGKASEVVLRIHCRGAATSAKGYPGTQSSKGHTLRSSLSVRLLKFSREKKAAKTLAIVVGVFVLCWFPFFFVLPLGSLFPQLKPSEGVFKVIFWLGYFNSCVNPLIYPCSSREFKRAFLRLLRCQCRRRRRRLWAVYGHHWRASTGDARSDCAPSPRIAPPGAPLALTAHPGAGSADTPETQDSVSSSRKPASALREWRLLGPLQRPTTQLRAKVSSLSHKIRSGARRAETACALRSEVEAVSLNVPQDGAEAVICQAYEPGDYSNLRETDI
T1 sequence (P43140 whole entry): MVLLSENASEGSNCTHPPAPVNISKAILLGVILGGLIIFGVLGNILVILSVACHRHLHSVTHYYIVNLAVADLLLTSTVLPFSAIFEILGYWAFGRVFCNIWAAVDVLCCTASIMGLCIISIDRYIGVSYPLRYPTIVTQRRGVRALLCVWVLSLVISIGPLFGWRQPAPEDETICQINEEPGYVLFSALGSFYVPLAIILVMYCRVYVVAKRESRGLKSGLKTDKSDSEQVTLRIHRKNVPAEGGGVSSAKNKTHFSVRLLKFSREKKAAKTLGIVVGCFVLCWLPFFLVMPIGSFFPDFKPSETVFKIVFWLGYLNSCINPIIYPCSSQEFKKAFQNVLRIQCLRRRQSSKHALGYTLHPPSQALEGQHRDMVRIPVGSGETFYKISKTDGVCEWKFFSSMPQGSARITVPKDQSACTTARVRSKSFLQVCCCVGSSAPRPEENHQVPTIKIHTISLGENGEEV

[2] = molecular target: Serotonin 1 (5-HT1) receptor (Rattus norvegicus, UniProt P28564+P30940+P19327+P28565); assay: The compound was tested for its binding affinity towards 5-hydroxytryptamine 1 receptor by displacing [3H]5-HT radioligand in rat cerebral cortex; format: tissue-based
Rattus norvegicus [3] = assay: Antipsychotic activity at a dose 10 times the ED50 value for CAR block for production of catalepsy in the rat (following i.p. dosing); format: functional; conditions: ip
[4] = molecular target: Serotonin 2 (5-HT2) receptor (Rattus norvegicus, UniProt P30994+P08909+P14842); assay: The compound was tested for its binding affinity towards 5-hydroxytryptamine 2 receptor by displacing [3H]ketanserin radioligand in rat cerebral cortex; format: tissue-based
Rattus norvegicus [5] = assay: The percentage production of catalepsy in rat at a dose of 25 mg/kg ip.; format: functional
Rattus norvegicus [6] = assay: The compound was measured at a dose 10 times the ED50 value for CAR block for production of catalepsy in the rat via oral administration.; format: functional; conditions: Rattus norvegicus, po; read-out: ED50
[7] = molecular target: T2, 5-hydroxytryptamine receptor 1A (Rattus norvegicus, UniProt P19327); assay: Binding affinity towards 5-hydroxytryptamine 1A receptor by displacing [3H]WB-4101 from rat hippocampus; format: tissue-based
T2 sequence (P19327 whole entry): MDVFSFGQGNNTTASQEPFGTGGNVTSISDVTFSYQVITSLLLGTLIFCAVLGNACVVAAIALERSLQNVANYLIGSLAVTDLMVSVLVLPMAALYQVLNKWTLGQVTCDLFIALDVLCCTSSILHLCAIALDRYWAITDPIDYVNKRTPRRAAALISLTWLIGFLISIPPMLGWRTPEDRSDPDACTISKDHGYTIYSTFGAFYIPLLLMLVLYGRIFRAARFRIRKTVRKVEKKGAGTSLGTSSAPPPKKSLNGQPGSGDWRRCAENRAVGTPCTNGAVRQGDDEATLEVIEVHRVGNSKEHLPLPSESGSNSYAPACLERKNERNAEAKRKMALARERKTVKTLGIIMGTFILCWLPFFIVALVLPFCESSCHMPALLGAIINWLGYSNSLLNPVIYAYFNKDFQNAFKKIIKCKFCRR

[8] = molecular target: 5-hydroxytryptamine receptor 1B (Rattus norvegicus, UniProt P28564); assay: The compound was tested for its binding affinity towards 5-hydroxytryptamine 1B receptor by displacing [3H]serotonin radioligand in rat cerebral cortex; format: tissue-based
Chain of 5-hydroxytryptamine receptor 1B (P28564 whole entry): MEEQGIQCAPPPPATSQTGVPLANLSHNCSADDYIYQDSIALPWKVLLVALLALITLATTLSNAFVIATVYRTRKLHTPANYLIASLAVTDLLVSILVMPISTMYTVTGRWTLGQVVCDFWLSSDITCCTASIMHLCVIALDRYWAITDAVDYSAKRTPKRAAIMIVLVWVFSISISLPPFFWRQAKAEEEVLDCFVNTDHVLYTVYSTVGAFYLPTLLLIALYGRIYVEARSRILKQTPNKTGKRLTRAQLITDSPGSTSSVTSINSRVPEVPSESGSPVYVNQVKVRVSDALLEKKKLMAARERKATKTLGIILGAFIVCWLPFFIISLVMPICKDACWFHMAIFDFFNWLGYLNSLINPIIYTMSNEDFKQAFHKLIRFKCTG

Rattus norvegicus [9] = assay: The percentage production of catalepsy in rat at a dose of 40 mg/kg ip.; format: functional
Rattus norvegicus [10] = species: Rattus norvegicus; assay: ED50 value for catalepsy indicates the dose required to produce a 50% of maximum catalepsy score. parentheses value indicate 95% confidence limit.; format: functional
Rattus norvegicus [11] = species: Rattus norvegicus; assay: ED50 value for catalepsy indicates the dose required to produce a 50% of maximum catalepsy score; format: functional

Compound | Ki [1] [nM] | Ki [2] [nM] | ED50 (Rattus norvegicus [3]) [mg/kg] | Ki [4] [nM] | further results
Cc1ccccc1N1CCN(Cc2ccc(CN3CCCC3=O)n2C)CC1 | 136 | 1000 | > 15 |  | 
CCCCc1ccccc1N1CCN(Cc2ccc(CN3CCCC3=O)n2C)CC1 |  |  | > 15 |  | 
Cn1c(CN2CCN(c3ccccc3C#N)CC2)ccc1CN1CCCC1=O | 63.7 | 140 | > 15 |  | 
COc1ccccc1N1CCN(Cc2ccc(CN3CCCC3=O)[nH]2)CC1 | 43.1 | 148 | > 15 | 1000 | 
COc1ccccc1N1CCN(Cc2ccc(CN3CCCCCC3=O)n2C)CC1 | 43.7 | 120 | 2.1 | 669 | % catalepsy at 25 mg/kg (Rattus norvegicus [5]): 51%; ED50 (Rattus norvegicus [6]): 30.5 mg/kg
COc1ccccc1N1CCN(Cc2ccc(CN3CCCC3=O)n2-c2ccccc2)CC1 | 100 |  | > 15 |  | 
O=C1CCCN1Cc1ccc(CN2CCN(c3ccccc3)CC2)[nH]1 |  |  | > 15 |  | 
Cn1c(CN2CCN(c3ccccc3O)CC2)ccc1CN1CCCC1=O | 140 |  | > 15 |  | 
COc1ccccc1N1CCN(Cc2ccc(CN3CCCCC3=O)n2C)CC1 | 166 | 139 | 2.3 |  | % catalepsy at 25 mg/kg (Rattus norvegicus [5]): 39.8%; ED50 (Rattus norvegicus [6]): 9.7 mg/kg
Cn1c(CN2CCN(c3ccccc3Cl)CC2)ccc1CN1CCCC1=O | 53.1 |  | > 15 |  | 
COc1cccc(N2CCN(Cc3ccc(CN4CCCC4=O)n3C)CC2)c1 | 1000 | > 1000 | > 7.5 |  | 
Cn1c(CN2CCN(c3cccc([N+](=O)[O-])c3)CC2)ccc1CN1CCCC1=O | > 100 | > 1000 | 15 | > 100 | 
CCc1ccccc1N1CCN(Cc2ccc(CN3CCCC3=O)n2C)CC1 | 38.2 | 304 | 15 | 227 | 
COc1ccccc1N1CCN(Cc2ccc(CN3CCCC3=O)n2C)CC1 | 44.9 | 185 | 2.1 | > 1000 | % catalepsy at 25 mg/kg (Rattus norvegicus [5]): 31%; Ki [7]: 17.2 nM; ED50 (Rattus norvegicus [6]): > 20 mg/kg
Cn1c(CN2CCN(c3ccccc3)CC2)ccc1CN1CCCC1=O | 436 |  | > 15 |  | 
Cn1c(CN2CCN(c3cccc(F)c3)CC2)ccc1CN1CCCC1=O | > 100 | 1000 | > 15 | > 100 | 
COc1ccccc1N1CCN(Cc2ccc(CN3CCCCCCC3=O)n2C)CC1 | 23.1 | 41 | 8.2 | 1000 | % catalepsy at 25 mg/kg (Rattus norvegicus [5]): 16.3%; ED50 (Rattus norvegicus [6]): > 27 mg/kg
CCc1ccccc1N1CCN(Cc2ccc(CN3CCCCC3=O)n2C)CC1 | 11.3 | 27.3 | > 15 | 355 | Ki [7]: 30 nM; Ki [8]: 100 nM
CC(C)c1ccccc1N1CCN(Cc2ccc(CN3CCCCCCC3=O)n2C)CC1 | 35.9 | 50.2 | > 15 | 196 | 
CCCCOc1ccccc1N1CCN(Cc2ccc(CN3CCCCCC3=O)n2C)CC1 | 15.7 | 58.9 | > 15 | 237 | 
CCCc1ccccc1N1CCN(Cc2ccc(CN3CCCC3=O)n2C)CC1 | 26.6 | 283 | > 30 | 317 | 
CC(C)c1ccccc1N1CCN(Cc2ccc(CN3CCCC3=O)n2C)CC1 | 20 | 76 | 5.8 | 409 | 
Cn1c(CN2CCN(c3cccc(Cl)c3)CC2)ccc1CN1CCCC1=O | 264 | 196 | 12.3 | 256 | 
Cn1c(CN2CCN(c3cccc([N+](=O)[O-])c3)CC2)ccc1CN1CCCCC1=O |  |  | > 15 | 669 | 
CC(C)Oc1ccccc1N1CCN(Cc2ccc(CN3CCCCC3=O)[nH]2)CC1 | 5.2 | 33.1 | 4 | 55.3 | % catalepsy at 40 mg/kg (Rattus norvegicus [9]): 10%; Ki [7]: 5.4 nM
O=C1CC2(CCCC2)CC(=O)N1CCCCN1CCN(c2ncccn2)CC1 [BUSPIRONE] |  |  | 4.5 |  | 
O=C(CCCN1CCC(O)(c2ccc(Cl)cc2)CC1)c1ccc(F)cc1 [HALOPERIDOL] |  |  |  |  | ED50 (Rattus norvegicus [10]): 0.36 mg/kg
CCN1CCC[C@H]1CNC(=O)c1cc(S(N)(=O)=O)ccc1OC [LEVOSULPIRIDE] | > 1000 |  | > 40 |  | ED50 (Rattus norvegicus [11]): > 40 mg/kg
CN1CCN(CCCN2c3ccccc3Sc3ccc(C(F)(F)F)cc32)CC1 [TRIFLUOPERAZINE] | 29.3 | > 1000 | 0.5 |  | Ki [7]: 411 nM; ED50 (Rattus norvegicus [11]): 1.7 mg/kg
